row,Compound,melting point [°C]
1,COc1cccc(C(N)CC(=O)O)c1 (stereo unspecified),223 to 225
2,Cc1n[nH]c(C)c1C(C)C(=O)O (stereo unspecified),181 to 183
3,CC(C)c1[nH]nc(C(=O)O)c1[N+](=O)[O-],149 to 151
4,O=C(O)c1cccc2[nH]ncc12,285 to 287
5,O=C(Nc1nc(-c2ccc(Cl)c(Cl)c2)cs1)C(Cl)c1ccccc1 (stereo unspecified),128 to 130
6,NCCNS(=O)(=O)c1cc(Br)ccc1Br,170 to 172
7,O=C(O)c1noc(-c2ccccc2Cl)n1,119 to 121
8,O=C(O)CCc1ccsc1,54 to 58
9,Cc1cc(C)n(-c2ccc(Cl)c(C(=O)O)n2)n1,184 to 186
10,O=C(Nc1ccccn1)C1CCCNC1 (stereo unspecified),94 to 96
11,Cn1cc(S(=O)(=O)Cl)cc1C(N)=O,132 to 134
12,CCc1c(O)nc(S)n(-c2ccccc2C)c1=O,178 to 180
13,Nc1ccc(C(=O)NC2CC2)c(Cl)c1,158 to 160
14,COc1ccc2c(c1)c(C(=O)O)c(C)n2C1CCCC1,174 to 176
15,NC(=NO)c1cccc(Oc2ccccc2)c1,66 to 68
16,Nc1ccnn1Cc1c(Cl)cccc1Cl,127 to 129
17,CC(C)(C)OC(=O)NC(C)(C)C(C)(C)C(=O)O,125 to 127

row,Compound,melting point [°C]
1,Nc1ccc2nc(-c3ccccn3)oc2c1,178 to 180
2,CC(C)(C)OC(=O)NN1CC(C(=O)O)CC1=O (stereo unspecified),169 to 171
3,O=C(NCc1ccco1)n1ccnc1,145 to 147
4,Nc1ccc(C(=O)N2CCCCC2)nc1,170 to 172
5,CCOC(=O)c1c(C)n(CC)c2ccc(O)cc12,183 to 185
6,O=c1c2c(-c3ccco3)csc2nc(S)n1-c1ccccc1,242 to 244
7,N#Cc1ccc(S(=O)(=O)Cl)cc1Cl,51 to 53
8,COc1cc(N)cc(Br)c1,39 to 41
9,N#Cc1nnc2ccccc2c1N,319 to 321
10,Fc1ccc2c(C3=CCNCC3)c[nH]c2c1,173 to 175
11,COc1ccc(S(=O)(=O)N2CCCCCC2)cc1C(=O)O,114 to 116
12,Cc1cccc2c(=O)n(CCC(=O)O)cnc12,199 to 201
13,NC(=O)c1cccc(Oc2ccc(N)cn2)c1,195 to 197
14,COc1cc(C(=O)O)cc(N)c1OC,135 to 137
15,Ic1nnc(-c2ccccc2)s1,105 to 107
16,CN(C)CCOc1cc(N)ccn1,87 to 89
17,Nn1c(S)nnc1C1CCCCO1 (stereo unspecified),162 to 164

# Now from value to compound:
row,melting point [°C],Compound
1,129 to 131,O=C(Nc1ccccc1C(=O)O)OCc1ccccc1
2,240 to 242,O=C(O)CCNC(=O)c1ccc2[nH]ncc2c1
3,282 to 284,O=C(Cc1ccc(Br)cc1)Nc1ccc(C(=O)O)cc1
4,65 to 67,Nc1ccc2c(c1)OC1(CCCCC1)O2
5,344 to 346,O=C(O)c1ccc2c(=O)[nH]c(CCl)nc2c1
6,254 to 256,O=c1nc2ccccc2c(-c2ccccc2)[nH]1
7,125 to 127,COc1ccc(-c2cc(N)n(-c3cccc(C)c3)n2)cc1
8,190 to 192,O=C(O)c1oc2ccccc2c1COc1ccccc1Cl
9,87 to 89,Nc1cc(F)ccc1OCC1CCCO1 (stereo unspecified)
10,92 to 96,CCNC(=S)n1ncc(C(=O)OCC)c1N
11,210 to 212,O=C(O)CSc1nnc(-c2ccccc2F)n1-c1ccccc1
12,154 to 156,O=C(O)c1nccnc1Sc1ccccc1
13,188 to 190,Cc1c(C(=O)O)nnn1-c1cccc2cccnc12
14,69 to 71,CS(=O)(=O)NCC#N
15,167 to 169,CN(C)c1ccc(C(=O)O)nn1
16,143 to 145,O=Cc1ccc(OC(=O)c2cccc([N+](=O)[O-])c2)cc1
17,239 to 241,COC(=O)C=Cn1c(=O)ccn2ncnc12
18,202 to 204,Nc1nc(N)nc(C2CCCC2)n1
19,184 to 186,Oc1ccc2[nH]ncc2c1

row,melting point [°C],Compound
1,107 to 109,CCCNC(=O)c1ccc(Cl)cc1[N+](=O)[O-]
2,140 to 142,Nc1c(Cl)nc(-c2ccccc2)nc1Cl
3,89 to 91,Cc1cc(C#N)ccc1O
4,44 to 46,CS(=O)(=O)NCCBr
5,35 to 37,COCCn1cc(S(=O)(=O)Cl)cn1
6,87 to 89,NCC(=O)N1CCN(c2ccc(Cl)cc2)CC1
7,37 to 39,Clc1ccc2c(c1)CCCN2
8,284 to 286,Cc1nnc(-c2ccc(C(=O)O)cc2)o1
9,193 to 195,Nn1c(S)nnc1-c1ccccc1
10,125 to 127,CNS(=O)(=O)c1cccc(N)c1C
11,139 to 141,COc1cc(OC)c(S(=O)(=O)Cl)cc1S(=O)(=O)Cl
12,143 to 145,CC(Cl)C(=O)Nc1ccc(C(C)(C)C)cc1 (stereo unspecified)
13,249 to 251,O=C(O)c1cc2sc3ccccc3c2s1
14,189 to 191,Nc1ccc2[nH]c(-c3ccccn3)nc2c1
15,62 to 64,CCOCCNC(=O)c1cccc(Br)c1
16,56 to 58,CN1CCN(C(=O)CO)CC1
17,170 to 174,O=C(O)c1ccccc1SCc1nnnn1-c1ccccc1
18,83 to 85,Nc1ccc(I)cc1Br
